The source of these data is US20210369710A1, “MODULATORS OF MYC FAMILY PROTO-ONCOGENE PROTEIN” (Nalo Therapeutics, priority 2019, published 2021).

For one test, the target named is T1, MycC Protein (Homo sapiens, UniProt P01106).
T1 construct: endogenous in cells; host or cells: HL-60 or SKNBE2
Description: Degradation of MycC protein, Western blot band density in cells. The class given is cell-based. The settings on record: HL-60 or SKNBE2 cells; 6 uL of compound (1 mM) added to 3 mL cells; 6 hours; Western blot band density (ImageJ). The protocol: (§1) In a T150 flask was plated either 2×10^6 of HL-60 (human leukemia cell line) or SKNBE2 (neuroblastoma cell line) cells in a total of 30 mL containing Roswell Park Memorial Institute (RPMI) 1640 Medium (Thermo Fisher, Cat. #11875-085), 10% Fetal Bovine Serum (FBS, Thermo Fisher: Cat. #10437-028), 1% Penicillin/streptomycin (Thermo Fisher: Cat. #10378016), and 1% Amophotericin B (Thermo Fisher, Cat. #15290026). The cells were split every 72 hours by reseeding the HL-60 or SKNBE2 cells, and the passage number was noted. It is noteworthy that cell cultures that were above 40 passages were not used, and most experiments were done with cells of less than 30 passages.
(§2) In a 6-well cell culture plate, a total of 3 mL of either 1×10^6 cells/mL of HL-60 or SKNBE2 cells were seeded, resulting in a total of 3×10^6 cells per well. To each well containing 3 mL of either HL-60 or SKNBE2 cell line was added 6 uL of MycN modulating compound (1 mM) and the resulting plate was shaken from left to right, and not swirled. After 6 hours, the cells were placed in a 15 mL falcon tube and spun at 500 Gs at 4° C. in a swinging bucket centrifuge. The medium was then carefully removed without disturbing the pellet. The pellet was then washed with 3 mLs of chilled phosphate buffered saline (PBS) and subjected to the spin cycle. PBS was then removed and the pellet was lysed in 200 uL of radioimmunoprecipitation (RIPA) lysis buffer (Thermo Fisher: Cat. #899000) that is supplemented with protease and phosphatase inhibitors (Thermo Fisher: Cat. #A32959). The cell lysate was then subjected to spinning in a centrifuge for 10 minutes at 13000G at 4° C. The supernatant was then carefully transferred to a fresh eppendorf tube without disturbing the pellet (˜180 uL). The protein concentration of the cell lysate was then determined by using a bicinchoninic acid (BCA assay) according to manufacturer's protocol (Thermo Fisher: Cat. #23227).
(§3) Cell lysate, approximately 25 ug-30 ug, was loaded per well in a 4-20% polyacrylamide gel (Biorad. Cat. #5671094). After running the dye front off of the gel, the gel was transferred to a nitrocellulose membrane (Biorad: Cat. #1704159) using the transblot turbo system (Biorad: Cat. #1704150) according to manufacturer's protocol. After transferring for 30 minutes, the membrane was blocked with 5% BSA for 1 hour at room temperature. The BSA was then washed off and the primary antibody of choice (1:500) was added, and the membrane was incubated with the primary antibody at 4° C. for overnight. The next morning, the primary antibody was removed and the membrane was washed with 1×-TBST for 10 minutes and repeated three more times. Following the last wash, a secondary antibody (Molecular Devices. Cat. #R8209 or R8208) was added at 1:5000 dilution and incubated for 1 hour at room temperature. Following the incubation with the secondary antibody, the membrane was washed with 1×-TBST for 10 minutes and repeated three more times. Following the last wash, the membrane was washed with de-ionized water twice and dried for at least two hours. Once the membrane is completely dry, the Molecular Devices Spectra Max western system was used to observe the bands. The western image was saved and the band density was measured with ImageJ software.

In another test the target is T2, MycN Protein (Homo sapiens, UniProt P04198).
T2 construct: endogenous in cells; host or cells: HL-60 or SKNBE2
T2 sequence (P04198 1-464): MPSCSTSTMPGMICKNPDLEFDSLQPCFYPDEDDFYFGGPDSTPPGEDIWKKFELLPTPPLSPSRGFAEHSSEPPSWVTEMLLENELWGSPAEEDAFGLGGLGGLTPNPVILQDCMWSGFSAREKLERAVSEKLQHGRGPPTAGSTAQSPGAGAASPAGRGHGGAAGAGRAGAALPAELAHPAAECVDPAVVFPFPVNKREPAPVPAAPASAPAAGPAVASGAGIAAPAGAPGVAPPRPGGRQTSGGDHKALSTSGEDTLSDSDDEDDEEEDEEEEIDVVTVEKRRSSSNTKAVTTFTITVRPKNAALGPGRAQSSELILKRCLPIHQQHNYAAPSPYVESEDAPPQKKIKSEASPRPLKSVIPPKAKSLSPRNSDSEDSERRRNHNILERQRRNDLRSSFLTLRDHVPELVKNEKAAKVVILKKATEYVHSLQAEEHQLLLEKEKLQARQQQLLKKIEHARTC
The experiment in a line: Degradation of MycN protein, Western blot band density in cells. The class given is cell-based. The settings on record: HL-60 or SKNBE2 cells; 6 uL of compound (1 mM) added to 3 mL cells; 6 hours; Western blot band density (ImageJ). The procedure:
as §1, §2, §3
(In general: Immunoblotting shows a protein as a band on a membrane.)

T1 sequence (P01106 whole entry): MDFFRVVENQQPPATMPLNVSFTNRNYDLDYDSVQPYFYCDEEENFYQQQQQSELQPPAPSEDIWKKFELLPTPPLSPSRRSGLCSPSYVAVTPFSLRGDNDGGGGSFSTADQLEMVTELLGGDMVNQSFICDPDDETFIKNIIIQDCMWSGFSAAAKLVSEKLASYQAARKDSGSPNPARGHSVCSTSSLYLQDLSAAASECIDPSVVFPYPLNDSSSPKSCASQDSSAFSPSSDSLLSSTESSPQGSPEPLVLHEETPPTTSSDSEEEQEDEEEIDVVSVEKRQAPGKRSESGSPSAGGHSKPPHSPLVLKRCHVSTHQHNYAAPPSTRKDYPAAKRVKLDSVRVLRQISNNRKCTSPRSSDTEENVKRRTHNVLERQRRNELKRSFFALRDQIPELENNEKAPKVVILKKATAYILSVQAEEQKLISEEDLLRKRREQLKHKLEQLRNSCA

On to `N#Cc1ccc2c(c1)CC(NC(=O)N[C@H]1CC[C@H](Nc3nccc(Nc4cc(C5CCCC5)[nH]n4)n3)CC1)C2` (stereo partly drawn) [Compound 11 (Fraction 1), 1-(5-cyano-2,3-dihydro-1H-inden-2-yl)-3-((1R,4R)-4-((4-((5-cyclopentyl-1H-pyrazol-3-yl)amino)pyrimidin-2-yl)amino)cyclohexyl)urea], for which, on MycC Protein, the “% Degradation of MycC” value is “**** (****: degradation 80-100%)”. Moreover, the “% Degradation of MycN” value at MycN Protein is “** (**: degradation 20-49%)”.
The corresponding values for `N#Cc1ccc2c(c1)CC(NC(=O)N[C@H]1CC[C@H](Nc3nccc(Nc4cc(C5CCCC5)[nH]n4)n3)CC1)C2` (stereo partly drawn) [Compound 11 (Fraction 2), 1-(5-cyano-2,3-dihydro-1H-inden-2-yl)-3-((1R,4R)-4-((4-((5-cyclopentyl-1H-pyrazol-3-yl)amino)pyrimidin-2-yl)amino)cyclohexyl)urea] are “**** (****: degradation 80-100%)” and “*** (***: degradation 50-79%)”.
With `O=C(NC1CCN(C2COC2)CC1)N[C@H]1CC[C@H](Nc2nccc(Nc3cc(C4CCCC4)[nH]n3)n2)CC1` [Compound 12, 1-((1R,4R)-4-((4-((5-cyclopentyl-1H-pyrazol-3-yl)amino)pyrimidin-2-yl)amino)cyclohexyl)-3-(1-(oxetan-3-yl)piperidin-4-yl)urea], the Dmax at 2 µM on MycC Protein and at MycN Protein was under 20% each time.
In the case of `CN(c1nccc(Nc2cc(C3CCCC3)[nH]n2)n1)C1CCC(NC(=O)NC2Cc3ccc(C#N)cc3C2)CC1` [Compound 16 (Fraction 1), 1-(5-cyano-2,3-dihydro-1H-inden-2-yl)-3-((1R,4R)-4-((4-((5-cyclopentyl-1H-pyrazol-3-yl)amino)pyrimidin-2-yl)(methyl)amino)cyclohexyl)urea], the “% Degradation of MycC” value on MycC Protein is “**** (****: degradation 80-100%)”. Besides, on MycN Protein, the “% Degradation of MycN” value is “*** (***: degradation 50-79%)”.
In the case of `CN(c1nccc(Nc2cc(C3CCCC3)[nH]n2)n1)C1CCC(NC(=O)NC2Cc3ccc(C#N)cc3C2)CC1` [Compound 16 (Fraction 2), 1-(5-cyano-2,3-dihydro-1H-inden-2-yl)-3-((1R,4R)-4-((4-((5-cyclopentyl-1H-pyrazol-3-yl)amino)pyrimidin-2-yl)(methyl)amino)cyclohexyl)urea], the “% Degradation of MycC” value on MycC Protein is given as “**** (****: degradation 80-100%)”. The “% Degradation of MycN” value on MycN Protein is listed as “*** (***: degradation 50-79%)”.
Consider `Cc1nc(-c2ccc3c(c2)CC(NC(=O)N[C@H]2CC[C@H](Nc4nccc(Nc5cc(C6CCCC6)[nH]n5)n4)CC2)C3)no1` (stereo partly drawn) [Compound 20, 1-((1R,4R)-4-((4-((5-cyclopentyl-1H-pyrazol-3-yl)amino)pyrimidin-2-yl)amino)cyclohexyl)-3-(5-(5-methyl-1,2,4-oxadiazol-3-yl)-2,3-dihydro-1H-inden-2-yl)urea], for which the Dmax at 2 µM on MycC Protein and at MycN Protein was 80 to 100% in each case.
Consider `N#Cc1ccc2c(c1)CC(NC(=O)N[C@H]1CC[C@H](Nc3nccc(Nc4cc(C5CC5)[nH]n4)n3)CC1)C2` (stereo partly drawn) [Compound 21, 1-(5-cyano-2,3-dihydro-1H-inden-2-yl)-3-((1R,4R)-4-((4-((5-cyclopropyl-1H-pyrazol-3-yl)amino)pyrimidin-2-yl)amino)cyclohexyl)urea], for which the Dmax (as a rule, the largest share of the target that was removed) at 2 µM was under 20% on MycC Protein and 20 to 49% on MycN Protein.
In the case of `O=C(NC1CCS(=O)(=O)CC1)N[C@H]1CC[C@H](Nc2nccc(Nc3cc(C4CCCC4)[nH]n3)n2)CC1` [Compound 24], the Dmax at 2 µM was 20 to 49% on MycC Protein and under 20% at MycN Protein.
For the compound `O=C(NC1CCCS(=O)(=O)C1)N[C@H]1CC[C@H](Nc2nccc(Nc3cc(C4CCCC4)[nH]n3)n2)CC1` (some centres unmarked) [Compound 25], the maximal degradation (Dmax) at 2 µM at MycC Protein and on MycN Protein was under 20% in each case.
For the compound `CS(=O)(=O)[C@H]1CCCC(NC(=O)N[C@H]2CC[C@H](Nc3nccc(Nc4cc(C5CCCC5)[nH]n4)n3)CC2)C1` (some centres unmarked) [Compound 26], the greatest degradation seen (Dmax) at 2 µM at MycC Protein was under 20%; at MycN Protein, 20 to 49%.
In the case of `Cc1cc(Nc2ccnc(N[C@H]3CC[C@H](NC(=O)N[C@H]4CC[C@H](S(C)(=O)=O)CC4)CC3)n2)n[nH]1` [Compound 32], the Dmax at 2 µM on MycC Protein and at MycN Protein was under 20% throughout.
In the case of `O=C(NC1CS(=O)(=O)C1)N[C@H]1CC[C@H](Nc2nccc(Nc3cc(C4CCCC4)[nH]n3)n2)CC1` [Compound 34], the Dmax at 2 µM on MycC Protein is 50 to 79%; on MycN Protein, under 20%.
On to `O=C(N[C@@H]1CCC[C@H](C(F)(F)F)C1)N[C@H]1CC[C@H](Nc2nccc(Nc3cc(C4CCCC4)[nH]n3)n2)CC1` [Compound 35, 1-((1R,4R)-4-((4-((5-cyclopentyl-1H-pyrazol-3-yl)amino)pyrimidin-2-yl)amino)cyclohexyl)-3-((1R,3S/1S,3R)-3-(trifluoromethyl)cyclohexyl)urea], for which the Dmax at 2 µM on MycC Protein lay in the range of 20 to 49%; at MycN Protein, 80 to 100%.
For the compound `O=C(NC1CCC(N2CCOC2=O)CC1)N[C@H]1CC[C@H](Nc2nccc(Nc3cc(C4CCCC4)[nH]n3)n2)CC1` (stereo partly drawn) [Compound 37, 1-((1R,4R)-4-((4-((5-cyclopentyl-1H-pyrazol-3-yl)amino)pyrimidin-2-yl)amino)cyclohexyl)-3-(4-(2-oxooxazolidin-3-yl)cyclohexyl)urea], the Dmax at 2 µM on MycC Protein and at MycN Protein was under 20% in each case.
For `CC1(NC(=O)N[C@H]2CC[C@H](Nc3nccc(Nc4cc(C5CCCC5)[nH]n4)n3)CC2)CCOCC1` [Compound 38, 1-((1R,4R)-4-((4-((5-cyclopentyl-1H-pyrazol-3-yl)amino)pyrimidin-2-yl)amino)cyclohexyl)-3-(4-methyltetrahydro-2H-pyran-4-yl)urea], the values for the greatest degradation seen (Dmax) at 2 µM at MycC Protein and on MycN Protein were 50 to 79% and 20 to 49%, respectively.
The corresponding values for `O=C(Nc1cccc(C(F)(F)F)c1)N[C@H]1CC[C@H](Nc2nccc(Nc3cc(C4CCCC4)[nH]n3)n2)CC1` [Compound 39, 1-((1R,4R)-4-((4-((5-cyclopentyl-1H-pyrazol-3-yl)amino)pyrimidin-2-yl)amino)cyclohexyl)-3-(3-(trifluoromethyl)phenyl)urea] are 20 to 49% and 50 to 79%.
In the case of `O=C(Nc1cccc(C(F)(F)F)c1)N[C@H]1CC[C@@H](Nc2nccc(Nc3cc(C4CCCC4)[nH]n3)n2)CC1` [Compound 40, 1-((1S,4S)-4-((4-((5-cyclopentyl-1H-pyrazol-3-yl)amino)pyrimidin-2-yl)amino)cyclohexyl)-3-(3-(trifluoromethyl)phenyl)urea], the Dmax at 2 µM at MycC Protein and on MycN Protein was 50 to 79% throughout.
`COCCNC(=O)NC1CCC(Nc2nccc(Nc3cc(C4CCCC4)[nH]n3)n2)CC1` [Compound 43, 1-((1R,4R)-4-((4-((5-cyclopentyl-1H-pyrazol-3-yl)amino)pyrimidin-2-yl)amino)cyclohexyl)-3-(2-methoxyethyl)urea]: the Dmax at 2 µM on MycC Protein and at MycN Protein was 20 to 49% in each case.
For `CO[C@H]1C[C@H](NC(=O)NC2CCC(Nc3nccc(Nc4cc(C5CCCC5)[nH]n4)n3)CC2)C1` (stereo partly drawn) [Compound 44, 1-((1R,4R)-4-((4-((5-cyclopentyl-1H-pyrazol-3-yl)amino)pyrimidin-2-yl)amino)cyclohexyl)-3-((1R,3R)-3-methoxycyclobutyl)urea], the Dmax at 2 µM at MycC Protein was 20 to 49%; on MycN Protein it was under 20%.
